Test results taken from US12082597B2, “Supplemented fish feed” (CAN TECHNOLOGIES, INC., priority 2013, dated 2024).
Where two headings read alike, the source gives them in different places.

Legend:
[1] = 20° C.; cited from earlier work
[2] = cited from earlier work
[3] = Half-life in fish-farm sediment (Skye); assay type: physicochemical; settings: Not GLP/GEP
Experimental: In common with most plant-derived biocides, the azadirachtin terpenoids have a short half-life in the environment. They hydrolyse in water, and their disappearance is faster the more alkaline the water. For example, at pH 7.0 and 20° C. the half-life of azadirachtin terpenoids is 19.5 days, and at pH 8.0 it is 4.4 days. As seawater is slightly alkaline, (pH 7.5-8.4) any dissolved azadirachtin terpenoids will have largely disappeared within a week. Azadirachtin is rapidly catabolized by the microflora in soil. […] Preliminary studies with some sediment from below cages in Skye (Scotland) and subsequently infused with NeemAzal® in the laboratory have indicated a half-life of 3 weeks for NeemAzal® Technical added to the sediment and incubated at 15° C. Unchanged excreted material will be infinitely diluted in the water and hydrolyzed within days into small fragments without biological activity.

DT50 in sea water = assay type: physicochemical; settings: 16° C.; Not GLP/GEP

C/C=C(\C)C(=O)O[C@H]1C[C@@H](OC(C)=O)[C@@]2(C(=O)OC)CO[C@H]3[C@@H](O)[C@@](C)([C@]45O[C@@]4(C)[C@H]4C[C@@H]5O[C@@H]5OC=C[C@@]54O)[C@H]4[C@]1(CO[C@]4(O)C(=O)OC)[C@@H]32 (relative stereo) [Azadirachtin A, dimethyl [2aR-[2aα,3β,4β(1aR*,2S*,3aS*,6aS*,7S*,7aS*),4aβ,5α,7aS*,8β(E),10β,10aα,10bβ]]-10-(acetyloxy)octahydro-3,5-dihydroxy-4-methyl-8-[(2-methyl-1-oxo-2-butenyl)oxy]-4-(3a,6a,7,7a)-tetrahydro-6a-hydroxy-7a-methyl-2,7-methanofuro[2,3-b]oxireno[e]oxepin-1a(2H)-yl)-1H,7H-naphtho-[1,8-bc:4,4a-c′]difuran-5,10a(8H)-dicarboxylate]
DT50 in field soil [1]: 4 to 5 days | DT50 in fresh water ([2]; pH 4.0): 50 days | DT50 in fresh water ([2]; pH 7.0): 19 days | DT50 in fresh water ([2]; pH 8.0): 4 days | DT50 in fish-farm sediment (Skye) [3]: 3 weeks | DT50 in sea water (DT50 in sea water): 8 days
